Laboratory results published in ChEMBL document CHEMBL5236572, “Bioactive Aurones, Indanones, and Other Hemiindigoid Scaffolds: Medicinal Chemistry and Photopharmacology Perspectives” (J Med Chem, 2022).

Experiments:
PMNL = test: Anti-inflammatory activity in human polymorphonuclear neutrophils assessed as reduction in cell movement incubated for 24 hrs by fluorescence analysis; type: functional, cell-based
NB-4 = test: Cytotoxicity against human NB-4 cells assessed as reduction in cell viability by MTT assay; type: functional, cell-based
SH-SY5Y = test: Cytotoxicity against human SH-SY5Y cells assessed as reduction in cell viability by MTT assay; type: functional, cell-based
[1] = test system: Human immunodeficiency virus 1; test: Antiviral activity against HIV-1 infected in human C8166 cells assessed as reduction in virus-induced cytopathic effect by MTT assay; type: functional, organism-based; details: Human immunodeficiency virus 1, C8166
[2] = Cytotoxicity against human C8166 cells assessed as reduction in cell viability by MTT assay; type: toxicity, cell-based
[3] = Selectivity index, ratio of CC50 for cytotoxicity against human C8166 cells to EC50 for antiviral activity against HIV-1 infected in human C8166 cells; type: toxicity, cell-based; details: read-out: Ratio CC50/EC50
[4] = test system: Geobacillus stearothermophilus; test: Antibacterial activity against Geobacillus stearothermophilus NCIB 8222 assessed as zone of inhibition incubated for 24 hrs by agar well diffusion method; type: functional
Bacillus anthracis = test: Antibacterial activity against clinical isolate Bacillus anthracis assessed as zone of inhibition incubated for 24 hrs by agar well diffusion method; type: functional
Bacillus subtilis = test: Antibacterial activity against Bacillus subtilis NCIB 3610 assessed as zone of inhibition incubated for 24 hrs by agar well diffusion method; type: functional
Bacillus cereus = test: Antibacterial activity against Bacillus cereus NCIB 6349 assessed as zone of inhibition incubated for 24 hrs by agar well diffusion method; type: functional
Staphylococcus aureus = test: Antibacterial activity against Staphylococcus aureus NCIB 8588 assessed as zone of inhibition incubated for 24 hrs by agar well diffusion method; type: functional
Escherichia coli = test: Antibacterial activity against Escherichia coli NCIB 86 assessed as zone of inhibition incubated for 24 hrs by agar well diffusion method; type: functional
Pseudomonas fluorescens = test: Antibacterial activity against Pseudomonas fluorescens NCIB 3756 assessed as zone of inhibition incubated for 24 hrs by agar well diffusion method; type: functional
Klebsiella pneumoniae = test: Antibacterial activity against Klebsiella pneumoniae NCIB 418 assessed as zone of inhibition incubated for 24 hrs by agar well diffusion method; type: functional
Shigella dysenteriae = test: Antibacterial activity against Shigella dysenteriae clinical isolate assessed as zone of inhibition incubated for 24 hrs by agar well diffusion method; type: functional
Candida albicans = test: […] activity against Candida albicans clinical isolate assessed as zone of inhibition incubated for 24 hrs by agar well diffusion method; type: functional
Pseudomonas aeruginosa = test: Antibacterial activity against Pseudomonas aeruginosa NCIB 950 assessed as zone of inhibition incubated for 24 hrs by agar well diffusion method; type: functional
[5] = molecular target: Amyloid-beta precursor protein (Homo sapiens, UniProt P05067); test: Binding affinity to human brain amyloid-beta fibril
Amyloid-beta precursor protein, sequence (P05067 whole entry): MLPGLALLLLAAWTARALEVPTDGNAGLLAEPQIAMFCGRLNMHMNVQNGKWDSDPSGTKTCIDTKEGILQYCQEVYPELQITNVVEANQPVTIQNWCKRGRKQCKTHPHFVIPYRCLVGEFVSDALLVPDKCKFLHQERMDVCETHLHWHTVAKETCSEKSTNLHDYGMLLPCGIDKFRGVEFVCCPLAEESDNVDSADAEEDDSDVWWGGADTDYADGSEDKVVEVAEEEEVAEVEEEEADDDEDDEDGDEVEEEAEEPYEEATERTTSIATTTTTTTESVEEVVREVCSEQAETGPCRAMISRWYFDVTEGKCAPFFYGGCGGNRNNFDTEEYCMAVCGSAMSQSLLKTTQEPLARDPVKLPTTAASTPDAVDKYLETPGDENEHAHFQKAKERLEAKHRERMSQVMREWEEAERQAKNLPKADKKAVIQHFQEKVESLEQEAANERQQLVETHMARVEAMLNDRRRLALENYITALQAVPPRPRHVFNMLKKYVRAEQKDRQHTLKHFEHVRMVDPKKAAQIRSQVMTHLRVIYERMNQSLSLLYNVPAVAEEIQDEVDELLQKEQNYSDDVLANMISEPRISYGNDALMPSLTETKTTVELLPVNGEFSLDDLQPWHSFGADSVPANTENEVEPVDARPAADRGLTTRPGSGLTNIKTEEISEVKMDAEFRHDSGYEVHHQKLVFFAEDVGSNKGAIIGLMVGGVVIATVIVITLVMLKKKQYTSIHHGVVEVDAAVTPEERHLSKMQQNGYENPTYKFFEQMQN

RAW264.7 = test: cells; details: Mus musculus
THP-1 [6] = test: Antiinflammatory activity against human THP-1 cells assessed as inhibition of LPS-stimulated TNF-alpha production at 40 uM incubated for 1 hrs followed by LPS stimulation for 4 hrs by ELISA; type: functional; details: time 5 hrs
THP-1 [7] = test: Antiinflammatory activity against human THP-1 cells assessed as inhibition of LPS-stimulated iNOS expression at 50 uM incubated for 1 hrs followed by LPS stimulation for 4 hrs by ELISA; type: functional; details: time 5 hrs
[8] = molecular target: Peroxisome proliferator-activated receptor gamma (Homo sapiens, UniProt P37231); test: Binding affinity to PPARgamma (unknown origin) by competitive binding assay
Peroxisome proliferator-activated receptor gamma, sequence (P37231 whole entry): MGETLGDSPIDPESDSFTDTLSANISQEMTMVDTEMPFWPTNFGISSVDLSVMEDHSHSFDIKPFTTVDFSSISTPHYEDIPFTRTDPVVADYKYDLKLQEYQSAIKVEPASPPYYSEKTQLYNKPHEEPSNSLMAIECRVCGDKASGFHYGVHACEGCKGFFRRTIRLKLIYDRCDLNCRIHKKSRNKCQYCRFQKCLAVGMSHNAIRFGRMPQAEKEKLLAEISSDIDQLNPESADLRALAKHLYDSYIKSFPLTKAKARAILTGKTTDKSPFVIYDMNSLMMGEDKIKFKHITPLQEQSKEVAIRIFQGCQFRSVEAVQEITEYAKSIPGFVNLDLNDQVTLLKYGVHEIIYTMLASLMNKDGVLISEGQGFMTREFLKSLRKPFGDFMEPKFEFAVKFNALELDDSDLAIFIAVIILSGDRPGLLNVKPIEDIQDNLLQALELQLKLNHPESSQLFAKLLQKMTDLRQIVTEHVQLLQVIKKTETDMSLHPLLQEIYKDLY

**Q.** With CCOC(OCC)c1ccc(/C=C2\Cc3ccccc3C2=O)cc1 as the compound, how does the IC50 (PMNL) read?
**A.** 7 µM

**Q.** Which IC50 (NB-4) does the source give for COc1cc2c(cc1O)C(=O)/C(=C/c1ccc(C(C)=O)cc1)O2 here?
**A.** 3.4 µM

**Q.** And the IC50 (SH-SY5Y)?
**A.** 3.5 µM

**Q.** And the IC50 [1]?
**A.** 2.4 µM

**Q.** And the CC50 [2]?
**A.** > 200 µM

**Q.** And the selectivity ratio [3]?
**A.** 82

**Q.** Which “inhibition zone (IZ)” value [4] does the source give for COc1ccc2c(c1)O/C(=C\c1cn(-c3ccccc3)nc1-c1cccs1)C2=O here?
**A.** 13 mm

**Q.** What about the “inhibition zone (IZ)” value (Bacillus anthracis) of the same compound?
**A.** 13 mm

**Q.** And the “inhibition zone (IZ)” value (Bacillus subtilis)?
**A.** 13 mm

**Q.** And the “inhibition zone (IZ)” value (Bacillus cereus)?
**A.** 13 mm

**Q.** And the “inhibition zone (IZ)” value (Staphylococcus aureus)?
**A.** 13 mm

**Q.** What about the “inhibition zone (IZ)” value (Escherichia coli) of the same compound?
**A.** 13 mm

**Q.** And the “inhibition zone (IZ)” value (Pseudomonas fluorescens)?
**A.** 13 mm

**Q.** What about the “inhibition zone (IZ)” value (Klebsiella pneumoniae) of the same compound?
**A.** 13 mm

**Q.** What about the “inhibition zone (IZ)” value (Shigella dysenteriae) of the same compound?
**A.** 13 mm

**Q.** What about the “inhibition zone (IZ)” value (Candida albicans) of the same compound?
**A.** 13 mm

**Q.** What about the “inhibition zone (IZ)” value (Pseudomonas aeruginosa) of the same compound?
**A.** 13 mm

**Q.** Which Kd [5] does the source give for O=C1/C(=C/c2ccc(-c3ccc(CO)cc3)s2)Cc2ccccc21 here?
**A.** 0.39 µM

**Q.** What about the IC50 (RAW264.7) of the same compound?
**A.** 4 µM

**Q.** With O=C1/C(=C/c2ccc(CO)o2)Oc2ccccc21 as the compound, how does the inhibition at 40 µM (THP-1 [6]) read?
**A.** 50%

**Q.** And the inhibition at 50 µM (THP-1 [7])?
**A.** 30%

**Q.** For COc1cc2c(cc1OC)C(=O)/C(=C/c1ccccc1OCCc1cccs1)C2, which IC50 [8] is on record?
**A.** 0.62 µM
